Legend:
[1] = biological target: T1, human recombinant PLK4 (Homo sapiens, UniProt O00444); assay: PLK4 Biochemical Assay (ADP-Glo); conditions: 0.5 nM PLK4, 8.0 μM ATP, 4.7 μM MBP, 6 hours at RT
T1 construct: purchased ThermoFisher PV6396
T1 sequence (O00444 1-970): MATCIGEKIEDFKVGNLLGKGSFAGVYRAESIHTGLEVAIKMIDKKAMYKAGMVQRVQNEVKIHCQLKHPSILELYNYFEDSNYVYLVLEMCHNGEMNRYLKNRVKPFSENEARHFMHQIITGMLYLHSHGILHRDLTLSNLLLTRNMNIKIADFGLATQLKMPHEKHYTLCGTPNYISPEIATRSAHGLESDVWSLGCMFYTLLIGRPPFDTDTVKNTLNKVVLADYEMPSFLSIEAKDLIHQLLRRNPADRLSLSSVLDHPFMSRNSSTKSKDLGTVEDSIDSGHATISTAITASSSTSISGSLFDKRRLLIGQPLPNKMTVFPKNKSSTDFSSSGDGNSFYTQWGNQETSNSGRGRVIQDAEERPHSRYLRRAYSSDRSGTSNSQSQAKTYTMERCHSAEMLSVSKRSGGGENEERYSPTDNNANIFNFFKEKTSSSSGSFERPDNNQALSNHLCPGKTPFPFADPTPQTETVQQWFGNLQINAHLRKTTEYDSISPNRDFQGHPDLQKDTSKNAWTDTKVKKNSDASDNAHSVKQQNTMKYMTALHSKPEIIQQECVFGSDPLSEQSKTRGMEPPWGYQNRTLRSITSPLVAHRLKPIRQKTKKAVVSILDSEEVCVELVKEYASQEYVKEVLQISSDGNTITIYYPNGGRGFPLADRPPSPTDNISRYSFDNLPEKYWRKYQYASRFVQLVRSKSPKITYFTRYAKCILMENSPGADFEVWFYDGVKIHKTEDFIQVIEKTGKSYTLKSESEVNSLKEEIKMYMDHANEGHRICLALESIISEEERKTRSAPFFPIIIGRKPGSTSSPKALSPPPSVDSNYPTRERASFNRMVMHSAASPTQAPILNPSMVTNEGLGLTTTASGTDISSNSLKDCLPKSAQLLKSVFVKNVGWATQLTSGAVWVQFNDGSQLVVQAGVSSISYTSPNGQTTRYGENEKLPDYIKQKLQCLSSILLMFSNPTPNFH
Procedure: Activity of human recombinant PLK4 (ThermoFisher, cat #PV6396) was measured by quantification of adenosine diphosphate (ADP) using the ADP-Glo Kinase Assay Kit (Promega, cat #V9102). […] 5 μL of 1.0 nM PLK4 protein in assay buffer (50 mM HEPES, pH 7.5, 0.01% Brij-35, 0.01% BSA, 10 mM MgCl2, 1 mM EGTA, 1 mM DTT) was added to the plates. Test compounds and PLK4 were incubated for 15 minutes at room temperature (RT). […] Reactions were stopped and the remaining ATP depleted by adding 10 μL of ADP-Glo reagent (Promega, cat #V912B) and incubating for 40 minutes at RT. The simultaneous conversion of the remaining ADP to ATP and measurement of the newly synthesized ATP was achieved by addition of 20 μL Kinase Detection reagent (Promega, cat #V914B), incubation for 30 min at RT, and luminescence detection using the EnVision plate reader (PerkinElmer). […] The IC50 values reported in Table 2 were determined using four parameter non-linear regression curve fit.

[2] = biological target: T2, human recombinant Aurora A (Homo sapiens, UniProt O14965); assay: Aurora A Kinase Biochemical Assay (ADP-Glo); conditions: selectivity ratio; Aurora A 2.5 nM, 20 μM ATP
T2 construct: purchased ThermoFisher PR5935A
T2 sequence (O14965 1-403): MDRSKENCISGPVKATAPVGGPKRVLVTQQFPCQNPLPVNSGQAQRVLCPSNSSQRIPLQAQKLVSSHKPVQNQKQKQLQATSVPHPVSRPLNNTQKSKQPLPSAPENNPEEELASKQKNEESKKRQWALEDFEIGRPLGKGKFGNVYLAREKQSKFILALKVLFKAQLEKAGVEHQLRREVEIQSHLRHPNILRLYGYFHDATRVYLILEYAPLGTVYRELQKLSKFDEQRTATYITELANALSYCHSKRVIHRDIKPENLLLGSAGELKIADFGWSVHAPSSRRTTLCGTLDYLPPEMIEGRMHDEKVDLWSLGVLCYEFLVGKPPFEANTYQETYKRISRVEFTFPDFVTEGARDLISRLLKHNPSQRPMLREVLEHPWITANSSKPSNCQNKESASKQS
Procedure: Activity of human recombinant Aurora A (ThermoFisher, cat #PR5935A) was measured by quantification of adenosine diphosphate (ADP) using the ADP-Glo Kinase Assay Kit (Promega, cat #V9102). Test compounds were solubilized in dimethyl sulfoxide (DMSO) and dispensed into 384-well white polystyrene nonbinding plates (Greiner, cat #781094) using the Echo acoustic dispenser (Labcyte Inc.) in a 11-point 3-fold titration in duplicates. 5 μL of 5.0 nM Aurora A in assay buffer (50 mM HEPES, pH 7.5, 0.01% Brij-35, 0.01% BSA, 10 mM MgCl2, 1 mM EGTA, 1 mM DTT) was added to the plates. Test compounds and Aurora A were incubated for 15 minutes at room temperature (RT). Then 5 μL of a 40 μM adenosine triphosphate (ATP) (Promega, cat #V915B) and 9.3 μM Myelin Basic Protein (MBP) (SignalChem, cat #M42-51N) substrate solution in assay buffer was added and the reaction mixture was incubated for 2 hours at RT. The final concentration of Aurora A, ATP and MBP in the reactions were 2.5 nM, 20 μM and 4.7 μM, respectively. Reactions were stopped and the remaining ATP depleted by adding 10 μL of ADP-Glo reagent (Promega, cat #V912B) and incubating for 40 minutes at RT. The simultaneous conversion of the remaining ADP to ATP and measurement of the newly synthesized ATP was achieved by addition of 20 μL Kinase Detection reagent (Promega, cat #V914B), incubation for 30 min at RT, and luminescence detection using the EnVision plate reader (PerkinElmer). Reactions lacking Aurora A were used as 100% inhibition controls. Reactions containing DMSO alone were used as 0% inhibition controls. The IC50 values reported in Table 2 were determined using four parameter non-linear regression curve fit.

Row | IC50 [1] [nM] | [Aurora A IC50 (nM)]/[PLK4 IC50 (nM)] [2] | Compound
1 | 0.259 | 743.0555 | COc1ccc2c(c1)[C@]1(C[C@H]1c1ccc3c(Nc4nc(-c5cnn(C)c5)ncc4OC)n[nH]c3c1)C(=O)N2 [Example 31, (1R,2S)-5′-methoxy-2-(3-{[5-methoxy-2-(1-methyl-1H-pyrazol-4-yl)pyrimidin-4-yl]amino}-1H-indazol-6-yl)spiro[cyclopropane-1,3′-indol]-2′(1′H)-one]
2 | 0.682 | 538.2697 | COc1ccc2c(c1)[C@]1(C[C@H]1c1ccc3c(Nc4nc(-c5ncco5)ccc4OC)n[nH]c3c1)C(=O)N2 [Example 4, (1R,2S)-5′-methoxy-2-(3-{[3-methoxy-6-(1,3-oxazol-2-yl)pyridin-2-yl]amino}-1H-indazol-6-yl)spiro[cyclopropane-1,3′-indol]-2′(1′H)-one]
3 | 0.708 | 567.6936 | CCS(=O)(=O)c1ccc(Nc2n[nH]c3cc([C@@H]4C[C@@]45C(=O)Nc4ccc(OC)cc45)ccc23)c(OC)c1 [Example 5, (1R,2S)-2-{3-[4-(ethanesulfonyl)-2-methoxyanilino]-1H-indazol-6-yl}-5′-methoxyspiro[cyclopropane-1,3′-indol]-2′(1′H)-one]
4 | 3.1 | 630 | CCOc1cc2c(ccc[n+]2[O-])cc1Nc1n[nH]c2cc([C@@H]3C[C@@]34C(=O)Nc3ccc(OC)cc34)ccc12 [Example 12, 7-ethoxy-6-((6-((1R,2S)-5′-methoxy-2′-oxospiro[cyclopropane-1,3′-indolin]-2-yl)-1H-indazol-3-yl)amino)quinoline 1-oxide]
5 | 0.99 | 360 | COc1ccc2c(c1)[C@]1(C[C@H]1c1ccc3c(Nc4nc(-c5ncco5)cnc4OC)n[nH]c3c1)C(=O)N2 [Example 19, (1R,2S)-5′-methoxy-2-(3-{[3-methoxy-6-(1,3-oxazol-2-yl)pyrazin-2-yl]amino}-1H-indazol-6-yl)spiro[cyclopropane-1,3′-indol]-2′(1′H)-one]
6 | 1.06 | 360.5487 | COc1ccc2c(c1)[C@]1(C[C@H]1c1ccc3c(Nc4cc(-c5cnn(C)c5)ncc4OC)n[nH]c3c1)C(=O)N2 [Example 27, (1R,2S)-5′-methoxy-2-(3-{[5-methoxy-2-(1-methyl-1H-pyrazol-4-yl)pyridin-4-yl]amino}-1H-indazol-6-yl)spiro[cyclopropane-1,3′-indol]-2′(1′H)-one]
7 | 0.797 | 2164 | COc1ccc2c(c1)[C@]1(C[C@H]1c1ccc3c(Nc4cc5c(cc4OC)S(=O)(=O)CC5)n[nH]c3c1)C(=O)N2 [Example 1, 6-methoxy-5-({6-[(1R,2S)-5′-methoxy-2′-oxo-1′,2′-dihydrospiro[cyclopropane-1,3′-indol]-2-yl]-1H-indazol-3-yl}amino)-2,3-dihydro-1H-1-benzothiophene-1,1-dione]

Continued, molecule first:

Row | Compound | IC50 [1] [nM] | [Aurora A IC50 (nM)]/[PLK4 IC50 (nM)] [2]
8 | CCOc1cc(-n2cncn2)cnc1Nc1n[nH]c2cc([C@@H]3C[C@@]34C(=O)Nc3ccc(OC)cc34)ccc12 [Example 38, (1R,2S)-2-(3-{[3-ethoxy-5-(1H-1,2,4-triazol-1-yl)pyridin-2-yl]amino}-1H-indazol-6-yl)-5′-methoxyspiro[cyclopropane-1,3′-indol]-2′(1′H)-one] | 0.817 | 2756.5515
9 | COc1ccc2c(c1)[C@]1(C[C@H]1c1ccc3c(Nc4cc5c(cc4OC)S(=O)(=O)C=C5)n[nH]c3c1)C(=O)N2 [Example 6, 6-methoxy-5-({6-[(1R,2S)-5′-methoxy-2′-oxo-1′,2′-dihydrospiro[cyclopropane-1,3′-indol]-2-yl]-1H-indazol-3-yl}amino)-1H-1-benzothiophene-1,1-dione] | 0.952 | 581.0754
10 | CCOc1cnc(-c2nccs2)cc1Nc1n[nH]c2cc([C@@H]3C[C@@]34C(=O)Nc3ccc(OC)cc34)ccc12 [Example 34, (1R,2S)-2-(3-{[5-ethoxy-2-(1,3-thiazol-2-yl)pyridin-4-yl]amino}-1H-indazol-6-yl)-5′-methoxyspiro[cyclopropane-1,3′-indol]-2′(1′H)-one] | 1.07 | 14827.5862
11 | COc1ccc2c(c1)[C@]1(C[C@H]1c1ccc3c(Nc4nc(-c5cnn(C)c5)cnc4OC)n[nH]c3c1)C(=O)N2 [Example 24, (1R,2S)-5′-methoxy-2-(3-{[3-methoxy-6-(1-methyl-1H-pyrazol-4-yl)pyrazin-2-yl]amino}-1H-indazol-6-yl)spiro[cyclopropane-1,3′-indol]-2′(1′H)-one] | 0.408 | 842.4019
12 | COc1ccc2c(c1)[C@]1(C[C@H]1c1ccc3c(Nc4cc(-c5cnn(CC(F)F)c5)ccc4OC)n[nH]c3c1)C(=O)N2 [Example 39, (1R,2S)-2-(3-{5-[1-(2,2-difluoroethyl)-1H-pyrazol-4-yl]-2-methoxyanilino}-1H-indazol-6-yl)-5′-methoxyspiro[cyclopropane-1,3′-indol]-2′(1′H)-one] | 1.93 | 1647.6978
13 | CCOc1ccc(-c2nccs2)cc1Nc1n[nH]c2cc([C@@H]3C[C@@]34C(=O)Nc3ccc(OC)cc34)ccc12 [Example 33, (1R,2S)-2-{3-[2-ethoxy-5-(1,3-thiazol-2-yl)anilino]-1H-indazol-6-yl}-5′-methoxyspiro[cyclopropane-1,3′-indol]-2′(1′H)-one] | 0.753 | 1496.6799
14 | COc1ccc2c(c1)[C@]1(C[C@H]1c1ccc3c(Nc4cc(-c5cnn(CC(F)F)c5)cnc4OC)n[nH]c3c1)C(=O)N2 [Example 46, (1R,2S)-2-(3-((5-(1-(2,2-difluoroethyl)-1H-pyrazol-4-yl)-2-methoxypyridin-3-yl)amino)-1H-indazol-6-yl)-5′-methoxyspiro[cyclopropane-1,3′-indolin]-2′-one] | 1.25 | 469.9759
